# Test results taken from paper PMC11324527, “Cryo-EM architecture of a near-native stretch-sensitive membrane microdomain” (Nature, 2024).
# T1: Pil1 (recombinant, reconstituted tubules) (Saccharomyces cerevisiae, UniProt P53252)
# T1 construct: PIL1 in pCoofy6, 6xHis-Sumo3 tag cleaved by SenP2, E. coli BL21(DE3)pLysS; homodimer in helical lattice on lipid tubules; model stops before residue 275
# T1 sequence (P53252 1-339): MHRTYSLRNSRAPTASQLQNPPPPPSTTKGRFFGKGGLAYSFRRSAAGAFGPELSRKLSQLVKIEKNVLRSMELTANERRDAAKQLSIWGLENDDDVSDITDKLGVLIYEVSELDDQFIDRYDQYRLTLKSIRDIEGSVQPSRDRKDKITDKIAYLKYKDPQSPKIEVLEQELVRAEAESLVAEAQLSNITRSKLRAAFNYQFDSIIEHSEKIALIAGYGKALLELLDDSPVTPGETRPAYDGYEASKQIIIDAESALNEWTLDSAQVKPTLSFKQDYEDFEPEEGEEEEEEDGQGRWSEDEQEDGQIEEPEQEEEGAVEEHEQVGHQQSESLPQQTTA
# B1: Pil1 (native-source eisosome) (natural protein, S. cerevisiae (endogenous in yeast), UniProt P53252 1-339, looked up)
# chain: T1 sequence (P53252 1-339)
# notes: Pil1, BAR-domain eisosome protein of S. cerevisiae; model built up to residue 274 (C-terminal region from residue 275 removed, no density); Stands in the tubules as dimers in a helical lattice; also called Pil1/Lsp1; PIL1_YEAST; source: endogenous, untagged, S. cerevisiae
# B2: Recombinant Pil1 (natural protein, S. cerevisiae, UniProt P53252 1-339, looked up)
# chain: T1 sequence (P53252 1-339)
# notes: Pil1 of S. cerevisiae, PIL1 cloned into pCoofy6 with primers from the start codon to the stop codon; Vector pCoofy6 (Addgene plasmid 43990) gives 6xHis-Sumo3; the Sumo3 tag was cleaved off with SenP2; It forms dimers in a helical lattice on liposomes; also called purified Pil1; reconstituted Pil1; source: E. coli BL21(DE3)pLysS, purified (HisTrap, HiTrap Q, SenP2 cleavage, Superdex 200); not …
# Experiments:
# [1] = molecular target: T1, Pil1 (recombinant, reconstituted tubules); test: cryo-EM helical reconstruction of reconstituted tubules; assay type: binding
# Pil1–mCherry = Pil1–mCherry (Saccharomyces cerevisiae, UniProt P53252); details: labelled compound; 1% PI(4,5)P2; PI(4,5)P2-dependent; pH 7.4, 150 mM KoAc, 2 mM MgAc
# [2] = molecular target: the molecule itself; test: cryo-EM structure; native-source eisosome tubules isolated from S. cerevisiae with bound plasma membrane bilayer; helical reconstruction of nine tubule types, symmetry expansion and density subtraction; dimers in a helical lattice
# [3] = molecular target: the molecule itself; test: cryo-EM structure; 15-20 uM recombinant Pil1 with about 2 mg/ml LUVs of known lipid mixtures, 30 °C for one hour, 20 mM HEPES pH 7.4, 150 mM KoAc, 2 mM MgAc; helical reconstruction; dimers in a helical lattice
molecule,measurement,setting,value
CCCCCCCC/C=C\CCCCCCCC(=O)OC[C@H](COP(=O)(O)OC[C@H](N)C(=O)O)OC(=O)CCCCCCC/C=C\CCCCCCCC [DOPS],cryo-EM helical reconstruction of reconstituted tubules,"[1]; +PI(4,5)P2/+sterol (15% cholesterol) mixture, site R43, K66, R70",This density accommodates a phosphatidylserine (PS) lipid (DOPS is present in our lipid mixtures)
CC1=CC(C)=[N+]2C1=C(CC[C@@H](C)[C@H]1CC[C@H]3[C@@H]4CC=C5C[C@@H](O)CC[C@]5(C)[C@H]4CC[C@]13C)c1c(C)cc(C)n1[B-]2(F)F [TF-cholesterol],mobile fraction,Pil1–mCherry,immobilized fraction of cholesterol interacts strongly with Pil1 and/or other lipids bound to the protein
CC(C)CCC[C@@H](C)[C@H]1CC[C@H]2[C@@H]3CC=C4C[C@@H](O)CC[C@]4(C)[C@H]3CC[C@]12C [cholesterol],cryo-EM helical reconstruction of reconstituted tubules,"[1]; +PI(4,5)P2/+sterol (15% cholesterol), void pattern below amphipathic helix, sterol not modelled",this pattern results from the stable association of sterol molecules with the AH
B1,stoichiometry N,[2],2
B2,stoichiometry N,[3],2
